According to article PMC9571594, “Development of Semisynthetic Apoptosis-Inducing Agents Based on Natural Phenolic Acids Scaffold: Design, Synthesis and In-Vitro Biological Evaluation” (Molecules, 2022):
Where two headings read alike, the source gives them in different places.

Columns and labels:
MCF-7 cells = assay: MTT cell viability assay, MCF-7; format: cell-based, Human
Description: MCF-7 cells (Human breast adenocarcinoma), HepG2 (human hepatocellular carcinoma), A549 (human lung adenocarcinoma), Caco-2 (colon carcinoma), PANC-1 (human pancreatic cancer), and Vero cells (derived from normal kidney cells) were supplied by (Holding Company for Biological Products and Vaccines VACSERA; Giza, Egypt). The cells were cultured in PRMI 1640 medium (Lonza, Switzerland) supplemented with 10% fetal bovine serum (Gibco), 1% penicillin and 1% streptomycin (Sigma Aldrich, Saint Louis, MO, USA) at 37 °C under an atmosphere of 5% CO2 and 95% air.
The effect of parent compounds and their derivatives were assessed by (3-(4,5-dimethylthiazol-2-yl)-2,5diphenyl-tetrazolium bromide) MTT assay. […] After a merged sheet of cells developed, the growth media was decanted from the 96-well microtiter and refilled with different concentrations of compounds (µg/mL), and the plate was incubated at 37 °C for 48 h to minimize exposure to the dissolving agent (Supporting Information).
MTT solution (BIO BASIC CANADA INC) was prepared [5 mg/mL in phosphate buffered saline (PBS)], added to each well and incubated for 4 h, then after removing the media, 200 μL of DMSO was added to each well to solubilize the formazan crystals and the optical density of the formazan product was measured at 560 nm using microplate reader (mindray, MR-96A). The results were calculated as the mean of the three independent experiments. […]
Determination of sample cytotoxicity on cells (MTT protocol) […]
well) and incubated at 37°C for 24 hours to develop a complete monolayer sheet.
2- Growth medium was decanted from 96 well micro titer plates after confluent sheet of cells were formed, cell monolayer was washed twice with wash media.
3- two-fold dilutions of tested sample was made in RPMI medium with 2% serum […]
4- 0.1 ml of each dilution was tested in different wells leaving 3 wells as control, receiving only maintenance medium.
5- Plate was incubated at 37°C and examined. Cells were checked for any physical signs of toxicity, e.g. partial or complete loss of the monolayer, rounding, shrinkage, […]
6- MTT solution was prepared (5mg/ml in PBS) (BIO BASIC CANADA INC).
8- 20ul MTT solution were added to each well. Place on a shaking table, 150rpm for 5 minutes, to thoroughly mix the MTT into the media.
10) Dump off the media. (dry plate on paper towels to remove residue if necessary. […] 9 ش - ايلعلا هبضهلا - مطقملا / ىسيئرلا لمعملا […]

Caco-2 cells = assay: Annexin V-FITC/PI apoptosis assay by flow cytometry; format: cell-based; set-up: key: % of cells; conditions: annexin-V FITC/PI staining, 24h
Description: In order to determine the percentage of viable, apoptotic and necrotic cells after treatment with our compounds, double-staining with fluorescein isothiocyanate (FITC) and PI was performed. Annexin V-FITC Apoptosis Detection Kit (BioVision, CA, USA) was used. Briefly, cultured Caco-2 were treated with the tested compounds or DMSO for 24h. Cells were then collected by centrifugation at 2000 rpm for 5 min, and the pellet was washed with PBS then centrifuged again at 2000 rpm for 5 min then resuspended in 500μL of the kit’s binding buffer before adding the Annexin V-FITC and PI. The cells were then incubated at room temperature in the dark for 5 min. Annexin V-FITC binding was measured using FACS Calibur flow cytometer (BD biosciences, USA) (Ex = 488 nm, Em = 533 nm, FL1 filter for annexin and FL2 filter for PI).

[1] = Homo sapiens, MCF7, MTT, 48 h, average of triplicates, read-out: IC50 (μM) ± SD MCF-7

COc1cc(/C=C/C(=O)O)ccc1O [Compound 2, Ferulic acid] showed an IC50 (MCF-7 cells; [1]) of 1120 µM, a viability at 15.625 µg/mL (MCF-7 cells; Homo sapiens, Mcf7, 15.625 ug/ml) of 98.7% and a viability at 31.25 µg/mL (MCF-7 cells; Homo sapiens, Mcf7, 31.25 ug/ml) of 99.4%. It also gave a viability at 62.5 µg/mL (MCF-7 cells; Homo sapiens, Mcf7, 62.5 ug/ml) of 99.2%, a viability at 125 µg/mL (MCF-7 cells; Homo sapiens, Mcf7, 125 ug/ml) of 84.9% and a viability at 250 µg/mL (MCF-7 cells; Homo sapiens, Mcf7, 250 ug/ml) of 29.4%. The viability at 500 µg/mL (MCF-7 cells; Homo sapiens, Mcf7, 500 ug/ml) was 11.7%, the IC50 (MCF-7 cells; Homo sapiens, Mcf7, MTT report T-4-019-5, Conc. ug/ml, read-out: IC50) was 203 µg/mL and the Toxicity % (MCF-7 cells; Mcf7, 15.625 ug/ml) was 1.286%. The Toxicity % (MCF-7 cells; Mcf7, 31.25 ug/ml) was 0.6431%, the Toxicity % (MCF-7 cells; Mcf7, 62.5 ug/ml) was 0.7503% and the Toxicity % (MCF-7 cells; Mcf7, 125 ug/ml) was 15.11%. For the same compound, the Toxicity % (MCF-7 cells; Mcf7, 250 ug/ml) was 70.63%, the Toxicity % (MCF-7 cells; Mcf7, 500 ug/ml) was 88.32% and the “Apoptosis Total” value (Caco-2 cells) was 13.22. The “Early Apoptosis” value (Caco-2 cells) was 5.17, the “Late Apoptosis” value (Caco-2 cells) was 6.48 and the Necrosis (Caco-2 cells) was 1.57.
With O=C(O)/C=C/c1ccc(O)c(O)c1 [Compound 1, Caffeic acid] the IC50 (MCF-7 cells; [1]) was 970 µM, the “Apoptosis Total” value (Caco-2 cells) was 11.31 and the “Early Apoptosis” value (Caco-2 cells) was 3.41. The “Late Apoptosis” value (Caco-2 cells) was 5.98 and the Necrosis (Caco-2 cells) was 1.92.
